Patent publication US9682993B2, “Anticancer compounds” (ST. JUDE CHILDREN'S RESEARCH HOSPITAL, priority 2012, dated 2017)

Legend:
[1] = system: MDM2 alternative splicing in Rh18 cells; test: In vitro alternative splicing assay (MDM2, RT-PCR); format: cell-based; conditions: Rh18, 8 h, PCR (FIG. 9)
Description: Briefly, following an 8 h exposure of exponentially growing cells to drug, total RNA was isolated using TRIzol reagent (Invitrogen, Carlsbad, Calif.). Total RNA (1 μg) was used to convert the mRNA to cDNA by using random primers, Oligo(dT)16 and Omniscript Reverse Transcription Kit (Qiagen, Germantown, Md.). PCR analyses were performed using specific oligonucleotides (see Table I) and standard amplification protocols. PCR products were separated by agarose gel electrophoresis, visualized by ethidium bromide staining on an UV transilluminator, and recorded. PCR band sizes were calculated by comparing them to the standard EZ Load 100-bp PCR Molecular Ruler (BioRad Laboratories, Hercules, Calif.).

[2] = system: HeLa; test: Drug combination assay, HeLa; format: cell-based; conditions: HeLa cells; combined with AUDA (15 μM)
Description: Preliminary cytotoxic screenings for each drug used in drug combination assays were performed to determine their cytotoxic dose range. […] Eight concentrations were established by 1:3 serial dilutions of the single drugs and their combinations with the splicing modulators. All drug concentrations were evaluated in triplicate in 96-well cell culture plates. Assays of individual drugs and drug combinations were run on the same tissue culture plate. Cell viability was determined using the CellTiter-Glo reagent. Drug interactions, in terms of synergism, additive effect, or antagonism, were based on the drugs' Combination Index (CI) (Chou et al., Adv. Enzyme Regul. 1984, 22, 27).
Luminescence data obtained from the cell viability determinations were formatted per the requirements of the analytical software (viability data range: >0 and <1). The formatted data were analyzed with the software CalcuSyn 2.1 (Biosoft, Cambridge, UK), which provides quantitative CI values for the drug interaction analyses (see ranges in Supplementary Table S2). […] Therefore, in these two cases the drug interaction was evaluated by comparing the IC50 value of Sudemycin with that of the IC50 values resulting from the serial dilutions of the splicing modulator combined with a constant dose of the non-toxic drug.

[3] = system: cell lines investigated; test: Drug combination assays, cell line not stated; format: cell-based; conditions: all cell lines investigated
[4] = In vivo plasma pharmacokinetic study in C.B-17 scid mice
Description: A sensitive and specific LC-MS/MS assay was developed for quantification of compound 20 in plasma for application in a murine pharmacokinetic study. Calibrators and quality controls (QCs) were prepared using 100% methanol stocks in blank C.B-17 scid mouse plasma with lithium heparin anticoagulant. The calibrators and QCs, 25 μL each, were stored briefly on wet ice and then protein precipitated with 75 μL of ice cold compound 19 internal standard processing solution. The supernatants, 100 μL of each, were mixed with 100 μL of methanol-10 mM ammonium bicarbonate, pH 7.0 (50:50 v/v) and injected from the 96-well plate to the LC-MS/MS system via a CTC HTS PAL autosampler. Chromatography was performed using a Phenomenex Synergi Fusion-RP C18 column ([…], 50 mm×2.0 mm) maintained at 35° C., and a linear gradient mobile phase consisting of water:methanol:acetonitrile ([…], v/v) to methanol: acetonitrile (70:30, v/v) and back. […] Detection was performed with an AB Sciex 5500 QTRAP LC-MS/MS System equipped with a Turbo IonSpray® source using the positive multiple-reaction monitoring (MRM) mode. The transitions monitored included m/x 475->288 for compound 20 and m/x 489->400 for compound 19, which served as an internal standard. The lower limit of quantitation was 1 ng/mL (5× S:N ration, <20% CV); intra-run precision and accuracy was ≦11.2% CV and 96.5-103%, respectively. The calibration curve was linear from 1 to 500 ng/mL (R=0.9968) and QC samples above the limit of quantitation (500 ng/mL) were precisely and accurately diluted into the linear range with blank C.B-17 scid mouse plasma.
A plasma PK study of compound 20 in male C.B-17 scid mice receiving a continuous i.v. infusion of compound 20 (100 mg/kg over 30 min) was performed. Compound 20 was formulated in 15% Captisol®/50 mM Na2HPO4/NaH2PO4 solution at 3 mg/mL and infused with a syringe pump at a rate of 20 μL/min via a jugular vein catheter. Blood samples (1 to 2 samples per mouse, 18 samples from 11 total mice) were collected by either retro-orbital sinus bleeding or terminal cardiac puncture at the following times after the start of infusion: 7.5, 15, 30 (end of infusion), 35, 45, and 60 minutes. The samples were immediately processed to plasma by centrifugation at 2000 g for 5 min; the resultant volume of plasma was then protein precipitated with a 3:1 volume of ice cold IS processing solution. The supernatants were immediately placed on dry ice and then stored at −80° C. until analysis.
The concentration-time data for compound 20 in mice was analyzed using the MLEM population estimation method as implemented in ADAPTS (D'Argenio, D. Z. and Schumitzky, A., Wang ADAPT 5 User's Guide: Pharmacokinetic/Pharmacodynamic Systems Analysis Software; Biomedical Simulations Resource: Los Angeles, Calif., USA, 2009). A linear, one-compartment PL model was fit to the data, and the adequacy of the fit was assessed by the −2 log likelihood value, visual predictive checks, and the residual plots. Inter-individual variability in plasma clearance (CL) and volume of distributions (V) was assumed to be log-normally distributed with the covariance matrix constrained to diagonal elements. The residual, intra-individual error was described using an additive and proportional model, with the additive term fixed to the lower limit of quantitation of the LC-MS/MS assay (LLOQ, 1 ng/mL). Beal's M3 method was used to handle data that was below the LLOQ (Beal, S. L., J. Pharmacokinet. Pharmacodyn. 2001, 28, 481). Other secondary parameters, such as the area under the plasma concentration-time curve to infinity (AUCinf), maximum plasma concentration (Cmax), and the time of Cmax (Tmax) were derived for the population using standard formulae (Pharmacokinetics, Second Edition; Gibaldi, M.; Perrier, D., Eds.; 2nd ed.; CRC Press, 1982).

[5] = male, C.B-17 scid, mouse, plasma, iv, 100 mg/kg, i.v. infusion over 30 min, population

With CNC(=O)O[C@@H](C)/C=C\C(=O)N[C@H]1CC[C@@H](C/C=C(C)/C=C/[C@@H]2C[C@]3(CO3)CC(C)(C)O2)CC1 [compound 20, (S,Z)-5-(((1R,4R)-4-((2E,4E)-5-((3R,5S)-7,7-Methyl-1,6-Dioxaspiro[2.5]Octan-5-Yl)-3-Methylpenta-2,4-Dien-1-Yl)Cyclohexyl)Amino)-5-Oxopent-3-En-2-Yl Methylcarbamate] the “alternative MDM2 splicing” value [1] was “induction of alternative MDM2 splicing”, the “effect of soluble epoxide hydrolase inhibition on IC50” value [2] was “improves the IC50” and the “synergy with PI3K/mTOR inhibition” value [3] was “synergy is also seen”. For the same molecule, the “mean CL relative to hepatic blood flow” value ([4]; i.v. infusion over 30 min) was 3 fold, the V ([4]; i.v. infusion over 30 min, population mean) was 0.877 L/kg and the AUC(0-inf) [4, 5] was 12.5 µM·h. It also gave a Cmax [4, 5] of 24.1 µM, a Tmax [4, 5] of 30 min and a half-life ([4]; male, C.B-17 scid, mouse, plasma, iv, 100 mg/kg, i.v. infusion over 30 min, population mean terminal elimination half-life) of 2.18 min. For the same molecule, the clearance ([4]; male, C.B-17 scid, mouse, plasma, iv, i.v. infusion over 30 min (100 mg/kg, 50 mg/kg elsewhere in the source), population mean) was 280 mL/min/kg and the “plasma concentration versus target plasma concentration” value ([4]; target far exceeded and maintained for an adequate time period) was > 0.5 µM.
